Measurements from patent publication US6274715A, “Tricyclic erythromycin derivatives” (priority 1997, dated 2001).
≈ marks a conversion by molar mass, not a printed value.

Key:
Assay type in all cases: cell-based
[1] = system: MYCOBACTERIUM SMEGMATIS ATCC 114; experiment: In vitro antibacterial activity, MIC, BHI agar dilution; details: M. smegmatis ATCC 114, unit assumed
[2] = system: ESCHERICHIA COLI DC-2; experiment: as above; details: E. coli DC-2, unit assumed
[3] = system: PSEUDOMONAS CEPACIA 296I; experiment: as above; details: P. cepacia 296I, unit assumed
[4] = system: STAPHYLOCOCCUS AUREUS CMX 553; experiment: as above; details: S. aureus CMX 553, unit assumed
[5] = system: ESCHERICHIA COLI SS; experiment: as above; details: E. coli SS
[6] = system: PSEUDOMONAS AERUGINOSA BMH10; experiment: as above; details: P. aeruginosa BMH10, unit assumed
[7] = system: STAPHYLOCOCCUS AUREUS A-5278; experiment: as above
[8] = system: STAPHYLOCOCCUS AUREUS ATCC 6538P; experiment: as above; details: S. aureus ATCC 6538P, 35-37° C., 20 to 24 hours, unit assumed
[9] = system: PSEUDOMONAS AERUGINOSA 5007; experiment: as above; details: P. aeruginosa 5007, unit assumed
[10] = system: ESCHERICHIA COLI KNK 437; details: E. coli KNK 437; BHI agar; unit assumed
[11] = system: ENTEROBACTER AEROGENES ATCC 13048; experiment: In vitro antibacterial activity, MIC, BHI agar dilution; details: E. aerogenes ATCC 13048, unit assumed
[12] = system: STAPHYLOCOCCUS AUREUS A5177; experiment: as above; details: S. aureus A5177, unit assumed
[13] = system: ESCHERICHIA COLI JUHL; details: E. coli JUHL; BHI agar; unit assumed
[14] = system: STREPTOCOCCUS PYOGENES PIU 2548; experiment: In vitro antibacterial activity, MIC, BHI agar dilution; details: S. pyogenes PIU 2548, unit assumed
[15] = system: PSEUDOMONAS AERUGINOSA K799/WT; experiment: as above; details: P. aeruginosa K799/WT, unit assumed
[16] = system: ESCHERICHIA COLI H560; experiment: as above; details: E. coli H560, unit assumed
[17] = system: STAPHYLOCOCCUS AUREUS 1775; experiment: as above; details: S. aureus 1775, unit assumed
[18] = system: PSEUDOMONAS AERUGINOSA DPHD-5263; experiment: as above; details: P. aeruginosa DPHD-5263, unit assumed
[19] = system: STAPHYLOCOCCUS AUREUS NCTC10649M; experiment: as above; details: S. aureus NCTC10649M, unit assumed
[20] = system: CANDIDA ALBICANS CCH 442; experiment: as above; details: C. albicans CCH 442, unit assumed
[21] = system: PSEUDOMONAS AERUGINOSA K799/61; experiment: as above; details: P. aeruginosa K799/61, unit assumed
[22] = system: PROVIDENCIA STUARTII CMX 640; details: P. stuartii CMX 640; BHI agar; unit assumed
[23] = system: STREPTOCOCCUS PYOGENES EES61; experiment: In vitro antibacterial activity, MIC, BHI agar dilution
[24] = system: STAPHYLOCOCCUS EPIDERMIDIS 3519; details: S. epidermidis 3519; BHI agar; unit assumed
[25] = system: PSEUDOMONAS AERUGINOSA DPHD-2862; experiment: In vitro antibacterial activity, MIC, BHI agar dilution; details: P. aeruginosa DPHD-2862, unit assumed
[26] = system: STAPHYLOCOCCUS AUREUS CMX 642A; experiment: as above; details: S. aureus CMX 642A, unit assumed
[27] = system: EN[…] ATCC 8043; experiment: as above; details: E. faecium ATCC 8043, unit assumed
How it was run: (§1)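 BHI agar dilution: twelve plates with successive compound dilutions, inoculated by replicator with 1:100 culture dilutions (1:10 for slow growers such as Micrococcus and Streptococcus), 20 to 24 hours at 35-37° C. MIC was the lowest concentration giving no growth, slight haze or sparse isolated colonies versus drug-free control; erythromycin A as class reference.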

[28] = system: M[…] ATCC 9341; experiment: as above; details: M. luteus ATCC 9341, unit assumed
How it was run: as §1

[29] = system: M[…] ATCC 4698; experiment: as above
How it was run: as §1

[30] = system: STR[…] 508; experiment: as above; details: S. agalactiae CMX 508, unit assumed
How it was run: as §1

[31] = system: ACINETOBACTER CALCOACETICUS CMX 669; experiment: as above; details: A. calcoaceticus CMX 669, unit assumed
[32] = system: KLEBSIELLA PNEUMONIAE ATCC 8045; experiment: as above; details: K. pneumoniae ATCC 8045, unit assumed
[33] = system: STREPTOCOCCUS PYOGENES 930; experiment: as above; details: S. pyogenes 930, unit assumed
[34] = system: STREPTOCOCCUS BOVIS A-5169; experiment: as above; details: S. bovis A-5169, listed as Ex 147, unit assumed

SMILES	MIC [1] [µg/mL]	MIC [2] [µg/mL]	MIC [3] [µg/mL]	MIC [4] [µg/mL]	MIC [6] [µg/mL]	MIC [8] [µg/mL]	MIC [9] [µg/mL]	MIC [10] [µg/mL]	MIC [11] [µg/mL]	MIC [12] [µg/mL]	MIC [13] [µg/mL]	MIC [14] [µg/mL]	MIC [15] [µg/mL]	MIC [16] [µg/mL]	MIC [17] [µg/mL]	MIC [18] [µg/mL]	MIC [19] [µg/mL]	MIC [20] [µg/mL]	MIC [22] [µg/mL]	MIC [24] [µg/mL]	other results
CC[C@H]1OC(=O)[C@H](C)C(=O)[C@H](C)[C@@H](O[C@@H]2O[C@H](C)C[C@H](N(C)C)[C@H]2O)[C@](C)(OC)C[C@@H](C)C2=N[C@H](COCc3ccc(OC)cc3)CN3C(=O)O[C@@]1(C)[C@H]3[C@H]2C [Example 90]	0.78 (≈ 0.99 µM)	> 100	> 100	0.39 (≈ 0.495 µM)	> 100	0.39 (≈ 0.495 µM)	> 100	> 100	> 100	0.39 (≈ 0.495 µM)	> 100	0.78 (≈ 0.99 µM)	> 100	50 (≈ 63.5 µM)	> 100	> 100	0.78 (≈ 0.99 µM)	> 100	> 100	0.39 (≈ 0.495 µM)	MIC ([5]; unit assumed): 0.78 µg/mL (≈ 0.99 µM); MIC ([7]; S. aureus A-5278, unit assumed): > 100 µg/mL; MIC [21]: 6.2 µg/mL (≈ 7.87 µM); MIC ([23]; S. pyogenes EES61, unit assumed): ≤ 0.005 µg/mL; MIC [25]: > 100 µg/mL; MIC [26]: 0.39 µg/mL (≈ 0.495 µM); MIC [27]: 0.02 µg/mL (≈ 0.0254 µM); MIC [28]: 0.1 µg/mL (≈ 0.127 µM); MIC ([29]; M. luteus ATCC 4698, unit assumed): 0.78 µg/mL (≈ 0.99 µM); MIC [30]: 0.02 µg/mL (≈ 0.0254 µM); MIC [31]: 100 µg/mL (≈ 127 µM); MIC [32]: > 100 µg/mL
CC[C@H]1OC(=O)[C@H](C)C(=O)[C@H](C)[C@@H](O[C@@H]2O[C@H](C)C[C@H](N(C)C)[C@H]2O)[C@](C)(OC)C[C@@H](C)C2=NC(COCc3ccc(Cl)cc3)C(COCc3ccc(Cl)cc3)N3C(=O)O[C@@]1(C)[C@H]3[C@H]2C (some centres unmarked) [Example 147]	1.56 (≈ 1.65 µM)	> 100	> 100	1.56 (≈ 1.65 µM)	> 100	1.56 (≈ 1.65 µM)	> 100	> 100	> 100	1.56 (≈ 1.65 µM)	> 100	3.1 (≈ 3.27 µM)	> 100	> 100	12.5 (≈ 13.2 µM)	> 100	1.56 (≈ 1.65 µM)	50 (≈ 52.8 µM)	> 100	1.56 (≈ 1.65 µM)	MIC ([5]; listed as Ex 147, unit assumed): > 100 µg/mL; MIC ([7]; S. aureus A-5278, listed as Ex 147, unit assumed): 6.2 µg/mL (≈ 6.55 µM); MIC [33]: 3.1 µg/mL (≈ 3.27 µM); MIC ([23]; S. pyogenes EES61, listed as Ex 147, unit assumed): 0.78 µg/mL (≈ 0.824 µM); MIC [25]: > 100 µg/mL; MIC [26]: 1.56 µg/mL (≈ 1.65 µM); MIC [27]: 0.78 µg/mL (≈ 0.824 µM); MIC [28]: 0.39 µg/mL (≈ 0.412 µM); MIC ([29]; M. luteus ATCC 4698, listed as Ex 147, unit assumed): 3.1 µg/mL (≈ 3.27 µM); MIC [30]: 0.78 µg/mL (≈ 0.824 µM); MIC [31]: > 100 µg/mL; MIC [34]: 0.39 µg/mL (≈ 0.412 µM); MIC [32]: > 100 µg/mL
